Experimental data published in patent publication US20230405134A1, “NOVEL PROTAC CHIMERIC COMPOUND, AND PHARMACEUTICAL COMPOSITION COMPRISING SAME FOR PREVENTING, AMELIORATING, OR TREATING DISEASES THROUGH TARGET PROTEIN DEGRADATION” (POSTECH RESEARCH AND BUSINESS DEVELOPMENT FOUNDATION, priority 2020, published 2023).
Where a SMILES comes first, the peptide text is derived from it. Bridges are numbered along the chain shown (N, C = ends). [ ]: non-standard residue; d: D form. Cha = N[C@@H](CC1CCCCC1)C(=O)O; S5 = C=CCCC[C@](C)(N)C(=O)O

Assays:
E-cadherin = E-cadherin mRNA level by RT-qPCR in MDA-MB-231 cells; assay type: cell-based, human; details: 12 hours
Text: (§1) The pharmacological effects on SRC-1 dependent signal transmission were explored using the previously discovered SRC-1 degrading substance. The SRC-1 is overexpressed in various cancers and plays a pivotal role in increasing cell migration and invasion by regulating the expression of related genes. Therefore, when treated with ND1-YL2, an SRC-1 degrading substance, the expression of genes stimulated by SRC-1, such as colony stimulating factor-1 (CSF-1), a gene encoding the cytokine CSF-1 that induces cell differentiation and migration, will be suppressed. To confirm this, MDA-MB-231 cells were treated with DMSO and various concentrations of ND1-YL2, YL2 or N-degron tetrapeptide for 12 hours, and the mRNA level of CSF-1 was normalized to 18S level. Confirmation was made using quantitative real-time polymerase chain reaction (RT-qPCR). MDA-MB-231 cells were seeded at 2×10^5 cells per well. After 24 hours, compounds (YL2, RLAA or ND1-YL2) were treated in Opti-MEM medium for 12 hours. Subsequently, general mRNA isolation was performed using TRI reagent (Takara), and total mRNA was isolated from the cells. The absorbance of total mRNA was measured with a Tecan F200 Nanophotometer, and reverse transcription was performed using AccuPower RocketScript Cycle RT PreMix (Bioneer). Quantitative real-time PCR for CSF-1, E-Cadherin and 18S was performed using a StepOnePlus Real-Time PCR System and SYBR Green mix (Applied Biosystems) according to the manufacturer's manual.
In addition, the effect of the ND1-YL2 on the expression of E-cadherin, a tumor suppressor gene that plays an important role in cell-cell adhesion, was tested. Since SRC-1 protein is known to suppress the E-cadherin expression, the ND1-YL2 will upregulate the E-cadherin by degrading SRC-1.

CSF-1 = CSF-1 mRNA level by RT-qPCR in MDA-MB-231 cells; assay type: cell-based, human; details: 12 hours
Text: as §1

MDA-MB-231 cells [1] = test: Gap closure migration assay; assay type: cell-based, human; details: 20 μM, 72 hours
Description: Based on the results that the SRC-1 degradation effectively affects the transcription mediated by SRC-1 (FIGS. 18A and 18B), it was predicted that ND1-YL2 would exert an inhibitory effect on downstream signaling pathways such as increased cancer cell migration and invasion. To test this, we first performed a gap closure migration assay using an invasive MDA-MB-231 cell line. MDA-MB-231 cells (70 μL of 4×10^5 cells/mL) were seeded in culture insert 2 wells (ibidi, 80209) pre-inserted into p-dishes (ibidi) under the conditions of 37° C. and 5% CO2. The culture insert 2 wells was gently removed with sterile tweezers. The cells were treated with DMSO, YL2 (20 […]), RLAA (20 μM) or ND1-YL2 (20 μM) in Opti-MEM medium for 72 hours. Images were obtained by a camera (Olympus) attached to an optical microscope. The cells were grown in the culture insert wells, and the inserts were removed to create intercellular gaps inside the wells. Subsequently, after treated with DMSO, YL2, RLAA peptide or ND1-YL2, the cells were cultured for 72 hours and the degree of cell migration was observed. The cell migration was quantified by analyzing the images of cells filling the gap.

SRC-1 = SRC-1 (Homo sapiens, UniProt Q15788); test: SRC-1 expression level in MDA-MB-231 cells by Western blot; assay type: cell-based; design: endogenous in cells; host or cells: MDA-MB-231; details: 20 μM, 12 hours
Chain of SRC-1 (Q15788 whole entry): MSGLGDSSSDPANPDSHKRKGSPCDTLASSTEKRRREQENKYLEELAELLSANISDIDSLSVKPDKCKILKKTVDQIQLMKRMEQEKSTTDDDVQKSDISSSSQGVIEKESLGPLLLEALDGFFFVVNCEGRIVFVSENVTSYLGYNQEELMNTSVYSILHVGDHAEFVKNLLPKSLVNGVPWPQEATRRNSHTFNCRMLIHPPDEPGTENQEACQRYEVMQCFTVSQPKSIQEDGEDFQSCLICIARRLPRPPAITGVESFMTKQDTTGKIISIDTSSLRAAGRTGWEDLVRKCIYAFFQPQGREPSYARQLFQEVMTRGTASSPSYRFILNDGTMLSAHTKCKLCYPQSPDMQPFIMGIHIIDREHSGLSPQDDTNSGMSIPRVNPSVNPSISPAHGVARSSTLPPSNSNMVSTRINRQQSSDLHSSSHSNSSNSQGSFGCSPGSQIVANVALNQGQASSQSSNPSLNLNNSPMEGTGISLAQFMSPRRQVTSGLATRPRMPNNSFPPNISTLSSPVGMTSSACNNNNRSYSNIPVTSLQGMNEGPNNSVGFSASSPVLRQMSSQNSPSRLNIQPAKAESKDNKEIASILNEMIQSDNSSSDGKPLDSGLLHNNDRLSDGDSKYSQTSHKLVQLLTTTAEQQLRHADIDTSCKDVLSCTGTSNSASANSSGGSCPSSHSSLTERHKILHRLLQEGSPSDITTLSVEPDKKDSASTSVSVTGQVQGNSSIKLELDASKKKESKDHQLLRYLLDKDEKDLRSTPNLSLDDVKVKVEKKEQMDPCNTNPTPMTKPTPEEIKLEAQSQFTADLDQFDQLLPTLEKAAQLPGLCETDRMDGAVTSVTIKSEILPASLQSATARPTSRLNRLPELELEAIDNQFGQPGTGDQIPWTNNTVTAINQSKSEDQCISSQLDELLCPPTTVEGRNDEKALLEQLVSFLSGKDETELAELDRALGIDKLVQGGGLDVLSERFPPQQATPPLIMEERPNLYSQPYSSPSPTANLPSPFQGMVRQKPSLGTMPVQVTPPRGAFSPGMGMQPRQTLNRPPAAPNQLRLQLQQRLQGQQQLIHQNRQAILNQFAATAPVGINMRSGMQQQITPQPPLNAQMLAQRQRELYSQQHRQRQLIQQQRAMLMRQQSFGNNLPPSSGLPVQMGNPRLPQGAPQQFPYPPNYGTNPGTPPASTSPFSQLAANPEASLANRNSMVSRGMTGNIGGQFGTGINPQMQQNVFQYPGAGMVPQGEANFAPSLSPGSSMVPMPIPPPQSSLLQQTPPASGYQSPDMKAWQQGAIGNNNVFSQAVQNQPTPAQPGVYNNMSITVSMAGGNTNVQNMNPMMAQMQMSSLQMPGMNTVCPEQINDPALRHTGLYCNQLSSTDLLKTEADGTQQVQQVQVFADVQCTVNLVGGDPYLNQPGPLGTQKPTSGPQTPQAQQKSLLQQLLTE

MDA-MB-231 cells [2] = test: Matrigel invasion assay; assay type: cell-based, human; details: 24 hours; ND1-YL2 various concentrations, YL2 and RLAA 20 μM
Description: The inhibition of cell migration may be due to the inhibitory effect of ND1-YL2 on cell growth. In order to exclude this possibility, the invasive ability of cells treated with ND1-YL2 was confirmed. A Corning Matrigel insert (Corning) was placed in a 24-well plate. After hydrating the Matrigel insert with an FBS-free DMEM medium for 2 hours in a CO2 incubator, MDA-MB-231 cells were cultured in the Matrigel insert (4×10^4 cells/insert) with 125 μL of Opti-MEM medium. Another 125 μl of compound containing Opti-MEM medium was added to the insert. The lower chamber was filled with 500 μL of DMEM medium containing 10% FBS. The Matrigel chamber was cultured for 24 hours under the conditions of 37° C. and 5% CO2. The cell culture media of the upper and lower chambers were removed and washed three times with cold DPBS. Non-invasive cells were then removed with a cotton swab. The bottom of the chamber was fixed with 4% formaldehyde for 10 minutes at room temperature, and stained with Hoechst 33342 (5 μg/mL) for 5 minutes in a CO2 incubator. After washed with DPBS, images of infiltrated cells were obtained by a fluorescence microscope. The percentage of the invasive cells was calculated using the product manual. MDA-MB-231 cells were treated with various concentrations of ND1-YL2, N-degron (20 μM) or YL2 (20 μM). After 24 hours, images of the invaded cells were obtained by a fluorescence microscope, and the number of invaded cells was quantified through the images. […] The inhibitory activity of ND1-YL2 on cell migration and invasion is in good agreement with previous SRC-1 knockdown experiments.

[3] = molecular target: T1, UBR box (residues 113-194) in the UBR1 E3 ubiquitin ligase of S. cerevisiae (S. cerevisiae, UniProt P19812 113-194); test: competitive fluorescence polarization on the UBR box (as the sentence implies; the origin of the value is not stated)
T1 construct: range 113-194; Expressed and purified as in Nat; Struct; Mol. Biol. 2010, 17, 1175-1181
T1 sequence (looked up): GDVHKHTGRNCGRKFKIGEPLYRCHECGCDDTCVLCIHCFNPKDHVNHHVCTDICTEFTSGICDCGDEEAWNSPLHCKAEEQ

Row | Molecule | Effect on E-cadherin expression (mRNA) (E-cadherin) | Effect on CSF-1 expression (mRNA normalized to 18S) (CSF-1) | Existing gaps maintained (cell migration) (MDA-MB-231 cells [1]) | SRC-1 degradation, single agents compared (SRC-1) | Effect on cell invasion (MDA-MB-231 cells [2]) | Ki [3] [µM]
1 | CC(C)C[C@H](NC(=O)[C@@H](N)CCCNC(=N)N)C(=O)N[C@@H](C)C(=O)N[C@@H](C)C(N)=O [RLAA] (H-RLAA-NH2) | no effect | did not significantly affect | gaps were completely filled | Neither YL2 nor RLAA tetrapeptide per se had any effect | no significant effect | –
2 | CC(C)C[C@@H]1NC(=O)[C@H](CCCCN)NC(=O)[C@@](C)(NC(=O)[C@H](CC(C)C)NC(=O)[C@H](CC(=O)O)NC(=O)[C@H](CCC(N)=O)NC(=O)[C@H](CCC(=O)O)NC(=O)[C@@H](NC(=O)[C@@H]2CCCN2C(=O)[C@@H]2CCCN2C(=O)[C@H](CC(C)C)NC(=O)[C@@H](N)CC(C)C)[C@@H](C)O)CCC/C=C\CCC[C@@](C)(C(=O)N[C@@H](Cc2ccc(O)cc2)C(N)=O)NC(=O)[C@H](CC2CCCCC2)NC1=O [YL2] (H-LLPPTEQDL[S5]KL[Cha][S5]Y-NH2; staple (Z) 10-14; N-terminus and C-terminus assumed) | no effect | did not significantly affect | gaps were completely filled | Neither YL2 nor RLAA tetrapeptide per se had any effect | no significant effect | –
3 | RLAA (also called RLAA peptide; N-degron tetrapeptide) [RLAA tetrapeptide] | – | – | – | – | – | 4.2
